From patent publication US7022688B1, “Use of 17β-dihydroequilenin as an antioxidant” (Wyeth, priority 1996, dated 2006)

How the values were obtained:
[1] = test system: oxidatively modified low density lipoprotein (LDL); experiment: porcine aortic endothelial cell mediated LDL oxidation assay (TBARS method); format: cell-based; details: pocine aortic endothelial cell mediated oxidation of LDL
Excerpt: (§1) The antioxidant properties of 17β-dihydroequilenin were established in a standard pharmacological test procedure that measured the its ability to inhibit the formation of oxidatively modified low density lipoprotein (LDL) induced by exposure to either Cu++ ions or cultured endothelial cells (Parthasarathy S, Proc Natl Acad Sci USA 86:1046–1050 (1989)) by the TBARS (thiobarbituric acid reactive substances) method for analysis of free aldehydes (Yagi K., Biochem Med 15:212–216 (1976)).

[2] = test system: oxidatively modified low density lipoprotein (LDL); experiment: inhibition of LDL oxidation induced by Cu++ ions or cultured endothelial cells (TBARS method); details: maximal inhibition of the process
Excerpt: as §1

IC50 [1] [nM] | SMILES | inhibition of LDL oxidation [2]
315 | C[C@]12CCc3c(ccc4cc(O)ccc34)[C@@H]1CC[C@@H]2O [17β-dihydroequilenin] | up to 100%
560 | C[C@]12CC[C@@H]3c4ccc(O)cc4CC[C@H]3[C@@H]1CCC2=O [estrone, reference compound] | 
